# Results published in patent US20100273696A1, “Composition and method for the prevention and removal of unwanted paint on a surface” (priority 2009, published 2010).
# What was measured:
# [1] = Solubility in water of possible ingredients; assay type: physicochemical
# [2] = Toxicity (hazard class) of possible ingredients; conditions: hazard symbol or 'none'
Compound,Solubility in H2O ([1]; result in words),Solubility in H2O ([1]; given as percent) [%],Toxicity [2]
CN1CCCC1=O [N-methyl-2-pyrrolidinone],complete,,
CCCCOCCOCCOC(C)=O [[2-(2-butoxyethoxy)-ethyl]-acetate],,6.5,none
CCOC(=O)CC(CC(C)=O)C(=O)OCC (centres unmarked) [diethyl acetonyl succinate],,,none
CCCCOCCOCCOCCCC [diethylene glycol dibutyl ether],,0.3,
CCOCCOCCOCC [diethylene glycol diethyl ether],complete,,none
COCCOCCOC [diethylene glycol dimethyl ether],complete,,
CCCOCCOCCOCCC [diethylene glycol dipropyl ether],complete,,none
CCCCOCCOCCO [diethylene glycol monobutyl ether],,10,
CCOCCOCCO [diethylene glycol monoethyl ether],complete,,none
COCCOCCO [diethylene glycol monomethyl ether],complete,,
CCCOCCOCCO [diethylene glycol monopropyl ether],complete,,none
COC(=O)CCC(=O)OC [dimethyl succinate],,7.5,
C[S+](C)[O-] [dimethyl sulfoxide],complete,,none
COCC(C)OCC(C)OC (centres unmarked) [dipropylene glycol dimethyl ether],complete,,none
CCOC(C)COC(C)CO (centres unmarked) [dipropylene glycol monoethyl ether],complete,,none
COC(C)COC(C)CO (centres unmarked) [dipropylene glycol monomethyl ether],complete,,none
CCCOC(C)COC(C)CO (centres unmarked) [dipropylene glycol monopropyl ether],complete,,none
O=C1OCCO1 [ethylene carbonate],,,none
CC1COC(=O)O1 (centres unmarked) [propylene carbonate],,24,
COCCOCCOCCOCCOC [tetraethylene glycol dimethyl ether],complete,,none
COCCOCCOCCOCCO [tetraethylene glycol monomethyl ether],complete,,none
COCCOCCOCCOC [triethylene glycol dimethyl ether],complete,,none
COCCOCCOCCO [triethylene glycol monomethyl ether],,,none
CCCCOC(C)COC(C)COC(C)CO (centres unmarked) [tripropylene glycol monobutyl ether],,,none
COC(C)COC(C)COC(C)CO (centres unmarked) [tripropylene glycol monomethyl ether],complete,,none
O=C1CCCO1 [γ-butyrolactone],complete,,
PEG-8 Oleate,,,none
lauryl ethercarboxylic acid (10 EO),complete,,none
octyl ethercarboxylic acid (8 EO),complete,,none
oleyl ethercarboxylic acid (9 EO),complete,,none
